Measured values taken from the Kinase Knowledgebase extract (Sharma et al. 2016).

Biological target: MAPK14 (human) (UniProt Q16539)
Experiment: Inhibition of MAPK14 Kinase Activity

Sequence of MAPK14 (human) (Q16539 whole entry, looked up): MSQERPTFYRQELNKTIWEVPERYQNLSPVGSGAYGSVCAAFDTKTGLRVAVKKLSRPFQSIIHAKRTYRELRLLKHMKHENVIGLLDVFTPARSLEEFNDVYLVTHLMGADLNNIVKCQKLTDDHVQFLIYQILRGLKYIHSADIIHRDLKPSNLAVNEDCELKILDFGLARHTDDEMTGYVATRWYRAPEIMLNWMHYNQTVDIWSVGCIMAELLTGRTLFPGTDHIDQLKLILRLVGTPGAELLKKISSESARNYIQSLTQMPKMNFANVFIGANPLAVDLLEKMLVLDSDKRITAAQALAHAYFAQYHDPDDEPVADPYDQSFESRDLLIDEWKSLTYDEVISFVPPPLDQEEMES

Question: Which IC50 does the source give for `CCC(=O)C(=O)NCc1nc(-c2ccc(F)cc2)c(-c2nc(C(=O)NC(C)C)cs2)o1` here?
Answer: ≤ 1 µM

Question: `CC(C)NC(=O)c1csc(-c2oc(CNC(=O)c3ccc([N+](=O)[O-])cc3Cl)nc2-c2ccc(F)cc2)n1` was tested. Which IC50 did it give?
Answer: ≤ 1 µM

Question: For `Cc1nc(-c2ccc(F)cc2)c(-c2nc(C(=O)NCCOc3ccccc3)cs2)s1`, which IC50 is on record?
Answer: ≤ 1 µM

Question: `CCC(CO)NCc1nc(-c2ccc(F)cc2)c(-c2nc(C(=O)NC(C)C)cs2)o1` (configuration not stated) was tested. Which IC50 did it give?
Answer: ≤ 1 µM

Question: With `Cc1nc(-c2ccc(F)cc2)c(-c2nc(C(=O)NC3CCCCC3)cs2)s1` as the molecule, how does the IC50 read?
Answer: ≤ 1 µM

Question: For `CC(C)NC(=O)c1csc(-c2oc(CN3CCN(C(=O)CC4Cc5ccccc5C4)CC3)nc2-c2ccc(F)cc2)n1`, which IC50 is on record?
Answer: ≤ 1 µM

Question: With `CC(=O)c1ccccc1C(=O)N1CCN(Cc2nc(-c3ccc(F)cc3)c(-c3nc(C(=O)NC(C)C)cs3)o2)CC1` as the molecule, how does the IC50 read?
Answer: ≤ 1 µM

Question: With `CC(C)NC(=O)c1csc(-c2oc(CN3CCN(C(=O)CCc4ccccc4O)CC3)nc2-c2ccc(F)cc2)n1` as the molecule, how does the IC50 read?
Answer: ≤ 1 µM

Question: With `CC(C)NC(=O)c1csc(-c2oc(CNC(=O)c3cccc(F)c3F)nc2-c2ccc(F)cc2)n1` as the molecule, how does the IC50 read?
Answer: ≤ 1 µM

Question: Which IC50 does the source give for `CC(C)NC(=O)c1csc(-c2oc(CN3CCN(C(=O)c4ccc(O)cc4O)CC3)nc2-c2ccc(F)cc2)n1` here?
Answer: ≤ 1 µM

Question: Which IC50 does the source give for `COc1ccc(NC(=O)c2csc(-c3sc(C)nc3-c3ccc(F)cc3)n2)cc1OC` here?
Answer: ≤ 1 µM

Question: Which IC50 does the source give for `Cc1nc(-c2ccc(F)cc2)c(-c2nc(C(=O)N[C@H](CO)Cc3ccccc3)cs2)s1` here?
Answer: ≤ 1 µM

Question: `CC(C)NC(=O)c1csc(-c2oc(CNC3CCN(Cc4ccccc4)C3)nc2-c2ccc(F)cc2)n1` (configuration not stated) was tested. Which IC50 did it give?
Answer: ≤ 1 µM

Question: How did the IC50 turn out when `COc1cc(OC)c(C(=O)N2CCN(Cc3nc(-c4ccc(F)cc4)c(-c4nc(C(=O)NC(C)C)cs4)o3)CC2)cc1OC` was run?
Answer: ≤ 1 µM

Question: Which IC50 does the source give for `Cc1nc(-c2ccc(F)cc2)c(-c2nc(C(=O)NCc3ccc(F)cc3F)cs2)s1` here?
Answer: ≤ 1 µM

Question: How did the IC50 turn out when `Cc1nc(-c2ccc(F)cc2)c(-c2nc(C(=O)NCc3ccccc3)cs2)s1` was run?
Answer: ≤ 1 µM

Question: `COc1ccccc1CCNC(=O)c1csc(-c2sc(C)nc2-c2ccc(F)cc2)n1` was tested. Which IC50 did it give?
Answer: ≤ 1 µM

Question: For `CCN(CC)c1ccc(C(=O)N2CCN(Cc3nc(-c4ccc(F)cc4)c(-c4nc(C(=O)NC(C)C)cs4)o3)CC2)cc1`, which IC50 is on record?
Answer: ≤ 1 µM

Question: With `COc1cc(C=CC(=O)N2CCN(Cc3nc(-c4ccc(F)cc4)c(-c4nc(C(=O)NC(C)C)cs4)o3)CC2)ccc1O` as the molecule, how does the IC50 read?
Answer: ≤ 1 µM

Question: With `Cc1ccc(C(=O)N2CCN(Cc3nc(-c4ccc(F)cc4)c(-c4nc(C(=O)NC(C)C)cs4)o3)CC2)c(C)c1` as the molecule, how does the IC50 read?
Answer: ≤ 1 µM

Question: How did the IC50 turn out when `Cc1nc(-c2ccc(F)cc2)c(-c2nc(C(=O)NCCc3ccccc3)cs2)s1` was run?
Answer: ≤ 1 µM

Question: For `CC(C)NC(=O)c1csc(-c2oc(CNC(=O)C=Cc3cccc(O)c3)nc2-c2ccc(F)cc2)n1`, which IC50 is on record?
Answer: ≤ 1 µM

Question: `CC(C)NC(=O)c1csc(-c2oc(CN3CCN(C(=O)c4ccccc4-c4ccccc4)CC3)nc2-c2ccc(F)cc2)n1` was tested. Which IC50 did it give?
Answer: ≤ 1 µM

Question: For `C#CCNC(=O)c1csc(-c2c(-c3ccc(F)cc3)n[nH]c2C)n1`, which IC50 is on record?
Answer: ≤ 1 µM

Question: `CCCN(C)Cc1onc(-c2ccc(F)cc2)c1-c1nc(C(=O)NC(C)C)cs1` was tested. Which IC50 did it give?
Answer: ≤ 1 µM

Question: How did the IC50 turn out when `Cc1ccc(F)cc1C(=O)NCc1nc(-c2ccc(F)cc2)c(-c2nc(C(=O)NC(C)C)cs2)o1` was run?
Answer: ≤ 1 µM

Question: How did the IC50 turn out when `CC(C)NC(=O)c1csc(-c2oc(CNC(=O)C=Cc3ccccc3O)nc2-c2ccc(F)cc2)n1` was run?
Answer: ≤ 1 µM

Question: Which IC50 does the source give for `COc1cc(C(=O)NCc2nc(-c3ccc(F)cc3)c(-c3nc(C(=O)NC(C)C)cs3)o2)cc(OC)c1O` here?
Answer: ≤ 1 µM

Question: For `CC(C)NC(=O)c1csc(-c2oc(CNC(=O)c3cccc(C#N)c3)nc2-c2ccc(F)cc2)n1`, which IC50 is on record?
Answer: ≤ 1 µM

Question: How did the IC50 turn out when `COc1ccc(CNC(=O)c2csc(-c3c(-c4ccc(F)cc4)n[nH]c3C3CCNCC3)n2)cc1O` was run?
Answer: ≤ 1 µM

Question: For `CC(C)NC(=O)c1csc(-c2c(-c3ccc(F)cc3)n[nH]c2C2CCN(C(=O)c3ccc(C(C)(C)C)cc3)CC2)n1`, which IC50 is on record?
Answer: ≤ 1 µM

Question: Which IC50 does the source give for `Cc1nc(-c2ccc(F)cc2)c(-c2nc(C(=O)Nc3ccc(C(F)(F)F)cc3C(F)(F)F)cs2)s1` here?
Answer: ≤ 1 µM

Question: With `Cc1nc(-c2ccc(F)cc2)c(-c2nc(C(=O)NCCCN3CCOCC3)cs2)s1` as the molecule, how does the IC50 read?
Answer: ≤ 1 µM

Question: With `CC(C)NC(=O)c1csc(-c2oc(CN3CCN(C(=O)c4cc([N+](=O)[O-])ccc4Cl)CC3)nc2-c2ccc(F)cc2)n1` as the molecule, how does the IC50 read?
Answer: ≤ 1 µM

Question: For `CCCC(C)NC(=O)c1csc(-c2c(-c3ccc(F)cc3)n[nH]c2C2CCNCC2)n1` (configuration not stated), which IC50 is on record?
Answer: ≤ 1 µM

Question: How did the IC50 turn out when `CCC(C)NC(=O)n1ccc(-c2c(-c3ccc(Cl)cc3)noc2C)n1` (configuration not stated) was run?
Answer: ≤ 1 µM

Question: How did the IC50 turn out when `CC(C)NC(=O)c1csc(-c2oc(CNC(=O)c3ccc(-c4ccc(O)cc4)cc3)nc2-c2ccc(F)cc2)n1` was run?
Answer: ≤ 1 µM

Question: Which IC50 does the source give for `Cc1nc(-c2ccc(F)cc2)c(-c2nc(C(=O)NCc3ccccc3C)cs2)s1` here?
Answer: ≤ 1 µM

Question: Which IC50 does the source give for `CC(C)NC(=O)c1csc(-c2oc(CNC(=O)c3cc([N+](=O)[O-])ccc3Cl)nc2-c2ccc(F)cc2)n1` here?
Answer: ≤ 1 µM

Question: With `COc1ccc(O)c(C(=O)N2CCN(Cc3nc(-c4ccc(F)cc4)c(-c4nc(C(=O)NC(C)C)cs4)o3)CC2)c1` as the molecule, how does the IC50 read?
Answer: ≤ 1 µM

Question: Which IC50 does the source give for `COc1ccc(CNCc2nc(-c3ccc(F)cc3)c(-c3nc(C(=O)NC(C)C)cs3)o2)cc1O` here?
Answer: ≤ 1 µM

Question: With `CC(=O)N1CCN(Cc2nc(-c3ccc(F)cc3)c(-c3nc(C(=O)NC(C)C)cs3)o2)CC1` as the molecule, how does the IC50 read?
Answer: ≤ 1 µM

Question: For `Cc1nc(-c2ccc(F)cc2)c(-c2nc(C(=O)NCc3ccccc3F)cs2)s1`, which IC50 is on record?
Answer: ≤ 1 µM

Question: Which IC50 does the source give for `CC(C)NC(=O)c1csc(-c2oc(CNC(=O)c3ccc(OCc4ccccc4)cc3)nc2-c2ccc(F)cc2)n1` here?
Answer: ≤ 1 µM

Question: With `CC(C)NC(=O)c1csc(-c2oc(CNC(=O)c3ccc4cccc(O)c4n3)nc2-c2ccc(F)cc2)n1` as the molecule, how does the IC50 read?
Answer: ≤ 1 µM

Question: With `COc1cc(CNC(=O)c2csc(-c3sc(C)nc3-c3ccc(F)cc3)n2)cc(OC)c1` as the molecule, how does the IC50 read?
Answer: ≤ 1 µM

Question: Which IC50 does the source give for `Cc1nc(-c2ccc(F)cc2)c(-c2nc(C(=O)NCCc3cccc(F)c3)cs2)s1` here?
Answer: ≤ 1 µM
